Data published in US20260078103A1, “ISOQUINOLONES AS PI3K INHIBITORS” (OnKure, Inc., priority 2022, published 2026).
Like-named read-outs stand apart in the source and are kept apart here.

Columns and labels:
[1] = system: phosphorylation of AKT (pAKT) in SKBR3 cells express WT PI3Ka; test: In vitro cell pAKT (Ser473) HTRF, SKBR3 cells; type: cell-based
Procedure, shortened: (§1)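 T47D cells (RPMI, 10% FBS, 0.2 units/mL insulin) or SKBR3 cells (McCoy's 5a, 10% FBS) were seeded onto 10-point compound dilutions and incubated 6 h at 37 °C. After lysis, pAKT was detected overnight by HTRF (Eu cryptate/d2). IC50 was fitted from % inhibition relative to 0.1% DMSO and 10 uM alpelisib controls.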

[2] = system: phosphorylation of AKT (pAKT) in T47D cells expressing mutant PI3Ka (H1047R); test: In vitro cell pAKT (Ser473) HTRF, T47D cells; type: cell-based
Procedure, shortened: as §1

[3] = system: T47D cells expressing mutant PI3Ka (H1047R); test: In vitro cell proliferation, T47D cells (CellTiter-Glo); type: cell-based; details: inhibition of proliferation, read-out: Avg T-47D EC50
Procedure, shortened: (§2)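 T47D (PI3Kα H1047R; RPMI, 10% FBS, insulin 0.2 units/mL) or SKBR3 (WT PI3Kα; McCoys 5a, 10% FBS) cells seeded at 1,500 cells/well on 10-point compound dilutions, grown 72 h at 37 °C. CellTiter-Glo luminescence; inhibition normalised to 0.1% DMSO and 10 uM alpelisib, EC50 from four-parameter fit.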

[4] = system: SKBR3 cells express WT PI3Ka; test: In vitro cell proliferation, SKBR3 cells (CellTiter-Glo); type: cell-based; details: inhibition of proliferation
Procedure, shortened: as §2

[5] = Mouse pharmacokinetics, single IV or PO dose, plasma LC/MS/MS; type: in vivo; details: CD1 mice; for PK-Mouse: PO F: PO 10 mg/kg vs IV 1 mg/kg; for AUC(0-t) / clearance: mouse, plasma; for clearance: read-out: PK-Mouse: IV Cl
Method: CD1 mice were dosed with a single IV or PO dose, followed by serial sampling of plasma at 0.0833 (IV only), 0.25, 0.5, 1, 2, 4, 8, 24 hours post dose. Desired serial concentrations of working solutions were achieved by diluting stock solution of analyte with 50% acetonitrile in water solution.10 μL of working solutions […] were added to 10 μL of the blank Female CD1 Mouse plasma to achieve calibration standards of 0.5˜1000 ng/ml (0.5, 1, 2, 5, 10, 50, 100, 500, 1000 ng/ml) in a total volume of 20 μL. Five quality control samples at 1 ng/ml, 2 ng/ml, 5 ng/ml, 50 ng/ml and 800 ng/ml for plasma were prepared independently of those used for the calibration curves. These QC samples were prepared on the day of analysis in the same way as calibration standards. 20 μL standards, 20 μL QC samples and 20 μL unknown samples (10 μL plasma with 10 μL blank solution) were added to 200 μL of acetonitrile containing IS mixture for precipitating protein respectively. Then the samples were vortexed for 30 s. after centrifugation at 4° Celsius, 4000 rpm for 15 min. The supernatant was diluted with water at a ratio of 1:2 (V/V, 1:2), Then 5 μL of diluted supernatant was injected into the LC/MS/MS system for quantitative analysis.

[6] = IV 1 mg/kg, 20% PEG400/20% PG/60% of 20% HPβCD solution in water, read-out: PK-Mouse: IV AUC last
[7] = IV 1 mg/kg, 20% PEG400/20% PG/60% of 20% HPβCD solution in water
[8] = PO 10 mg/kg, 30% SBEβCD in water, read-out: PK-Mouse PO AUC last
[9] = cellular pAKT, T47D cells, mutant PI3Ka (H1047R), 6 hours; read-out: Avg T-47D IC50
[10] = Homo sapiens, SK-BR-3, 6 h, cellular pAKT
[11] = Homo sapiens, T47D, 6 h, cellular pAKT, T47D cells, mutant PI3Ka (H1047R), 6 hours; read-out: Avg T-47D IC50

Compound | EC50 ([3]; 72 hours) [µM] | EC50 ([4]; 72 hours) [µM] | IC50 ([1]; cellular pAKT, 6 hours) [µM] | IC50 [2, 9] [µM] | IC50 [1, 10] [µM] | IC50 [2, 11] [µM] | EC50 ([3]; Homo sapiens, T47D, 72 h) [µM] | EC50 ([4]; Homo sapiens, SK-BR-3, 72 h) [µM] | further results
Cc1cc(C(C)Nc2ccccc2C(=O)O)c2cc(N3CCC(C)(C)CC3)n(C)c(=O)c2c1 (single isomer, unassigned) [Example 1, 2-((1-(3-(4,4-dimethylpiperidin-1-yl)-2,7-dimethyl-1-oxo-1,2-dihydroisoquinolin-5-yl)ethyl)amino)benzoic acid] | 0.001 to 0.5 | 2 to 15 |  |  |  |  |  |  | IC50 ([1]; Homo sapiens, SK-BR-3, cellular pAKT, 6 hours): > 15 µM; IC50 ([2]; read-out: Avg T-47D IC50; cellular pAKT, T47D cells, mutant PI3Ka (H1047R), 6 hours): 0.001 to 0.5 µM; PK-Mouse: PO F [5]: 50%; AUC(0-t) [5, 6]: 3060 ng·h/mL; clearance [5, 7]: 5.7 mL/min/kg; AUC(0-t) [5, 8]: 15200 ng·h/mL
Cc1cc(C(C)Nc2ccccc2C(=O)O)c2cc(N3CCN(CC(F)(F)F)CC3)n(C)c(=O)c2c1 (single isomer, unassigned) [Example 8, 2-((1-(2,7-dimethyl-1-oxo-3-(4-(2,2,2-trifluoroethyl)piperazin-1-yl)-1,2-dihydroisoquinolin-5-yl)ethyl)amino)benzoic acid] | 0.001 to 0.5 | 2 to 15 | 2 to 15 | 0.001 to 0.5 |  |  |  |  | PK-Mouse: PO F [5]: 62%; AUC(0-t) [5, 6]: 1440 ng·h/mL; clearance [5, 7]: 11.7 mL/min/kg; AUC(0-t) [5, 8]: 8900 ng·h/mL
C[C@@H](Nc1ccccc1C(=O)O)c1cc(F)cc2c(=O)n(C)c(-c3ccc(OC4CC(F)(F)C4)nc3)cc12 [Example 546] | 0.001 to 0.5 | > 15 | > 15 | 0.001 to 0.5 |  |  |  |  | 
Cc1cc([C@@H](C)Nc2ccccc2C(=O)O)c2cc(N3CCN(c4ccc(C)nn4)CC3)n(C)c(=O)c2c1 [Example 551] |  |  |  |  | 2 to 15 | 0.001 to 0.5 | 0.001 to 0.5 | 2 to 15 | 
Cc1ccc(N[C@H](C)c2cc(F)cc3c(=O)n(C)c(-c4ccc(OCC(F)(F)F)nc4)cc23)c(C(=O)O)n1 [Example 557] | 0.5 to 2 | 2 to 15 | > 15 | 0.001 to 0.5 |  |  |  |  | 
Cc1ncc(F)cc1-c1ncc(-c2c(F)c3c([C@@H](C)Nc4ccccc4C(=O)O)cc(F)cc3c(=O)n2C)cc1F [Example 562] |  |  |  |  | 2 to 15 | 0.001 to 0.5 | 0.001 to 0.5 | > 15 | 
C[C@@H](Nc1ccccc1C(=O)O)c1cc(F)cc2c(=O)n(C)c(-c3cnc(OCC(F)(F)F)s3)cc12 [Example 568] |  |  |  |  | > 15 | 0.001 to 0.5 | 0.001 to 0.5 | > 15 | 
C[C@@H](Nc1ccccc1C(=O)O)c1cc(F)cc2c(=O)n(C)c(C34CC(C(F)(F)C(F)(F)F)(C3)C4)cc12 [Example 571] |  |  |  |  | > 15 | 0.001 to 0.5 | 0.001 to 0.5 | 2 to 15 | 
C[C@@H](Nc1ccccc1C(=O)O)c1cc(F)cc2c(=O)n(C)c(-c3cnc(C4(CC(F)(F)F)CC4)nc3)cc12 [Example 579] |  |  |  |  | > 15 | 0.001 to 0.5 | 0.001 to 0.5 | 2 to 15 | 
C[C@@H](Nc1ccccc1C(=O)O)c1cc(F)cc2c(=O)n(C)c(C34CC(c5cnn(C(F)F)c5)(C3)C4)c(F)c12 [Example 580] |  |  |  |  | 2 to 15 | 0.001 to 0.5 | 0.001 to 0.5 | 2 to 15 | 
Cc1ncc(-c2c(F)c3c([C@@H](C)Nc4ccccc4C(=O)O)cc(F)cc3c(=O)n2C)s1 [Example 582] |  |  |  |  | > 15 | 0.001 to 0.5 | 0.001 to 0.5 | > 15 | 

Now from value to compound, other results behind:

EC50 ([3]; 72 hours) [µM] | EC50 ([4]; 72 hours) [µM] | IC50 ([1]; cellular pAKT, 6 hours) [µM] | IC50 [2, 9] [µM] | IC50 [1, 10] [µM] | IC50 [2, 11] [µM] | EC50 ([3]; Homo sapiens, T47D, 72 h) [µM] | EC50 ([4]; Homo sapiens, SK-BR-3, 72 h) [µM] | Compound | further results
0.001 to 0.5 | 2 to 15 | > 15 | 0.5 to 2 |  |  |  |  | Cc1cc(C(C)Nc2ccc(Cl)nc2C(=O)O)c2cc(C3=CCC(C)(C)CC3)n(C)c(=O)c2c1 (single isomer, unassigned) [Example 23, 6-chloro-3-((1-(3-(4,4-dimethylcyclohex-1-en-1-yl)-2,7-dimethyl-1-oxo-1,2-dihydroisoquinolin-5-yl)ethyl)amino)picolinic acid] | PK-Mouse: PO F [5]: 106%; AUC(0-t) [5, 6]: 683 ng·h/mL; clearance [5, 7]: 24.6 mL/min/kg; AUC(0-t) [5, 8]: 7230 ng·h/mL
 |  |  |  | > 15 | 0.001 to 0.5 | 0.5 to 2 | > 15 | C[C@@H](Nc1ccccc1C(=O)O)c1cc(F)cc2c(=O)n(C)c(-c3ccc(OCC(F)(F)F)nc3)c(F)c12 [Example 547] | 
0.001 to 0.5 | 2 to 15 | > 15 | 0.001 to 0.5 |  |  |  |  | C[C@@H](Nc1ccccc1C(=O)O)c1cc(F)cc2c(=O)n(C)c(-c3cnc(-c4cc(F)c(F)cc4F)c(F)c3)cc12 [Example 548] | 
 |  |  |  | > 15 | 0.5 to 2 | 2 to 15 | > 15 | C[C@@H](Nc1ccccc1C(=O)O)c1cc(F)cc2c(=O)n(C)c(Br)cc12 [Example 555] | 
 |  |  |  | > 15 | 0.5 to 2 | 0.5 to 2 | > 15 | C[C@@H](Nc1ccccc1C(=O)O)c1cc(F)cc2c(=O)n(C)c(I)cc12 [Example 559] | 
0.001 to 0.5 | 2 to 15 | > 15 | 0.001 to 0.5 |  |  |  |  | CC(Nc1ccccc1C(=O)O)c1cc(F)cc2c(=O)n(C)c(-c3cnc(-c4ccc(F)cc4F)c(F)c3)cc12 (centres unmarked) [Example 560] | 
0.001 to 0.5 | > 15 | > 15 | 0.001 to 0.5 |  |  |  |  | CC(Nc1ccccc1C(=O)O)c1cc(F)cc2c(=O)n(C)c(-c3ccc(OC4CC4)nc3)c(F)c12 (centres unmarked) [Example 561] | 
0.001 to 0.5 | > 15 | > 15 | 0.001 to 0.5 |  |  |  |  | CC(Nc1ccccc1C(=O)O)c1cc(F)cc2c(=O)n(C)c(-c3cnc(OC4CC4)c(F)c3)c(F)c12 (centres unmarked) [Example 565] | 
 |  |  |  | > 15 | 0.001 to 0.5 | 0.5 to 2 | 2 to 15 | C[C@@H](Nc1ccccc1C(=O)O)c1cc(F)cc2c(=O)n(C)c(-c3cnc(OCC(F)(F)F)c(F)c3)c(F)c12 [Example 569] | 
 |  |  |  | > 15 | 0.001 to 0.5 | 0.001 to 0.5 | > 15 | C[C@@H](Nc1ccccc1C(=O)O)c1cc(F)cc2c(=O)n(C)c(C34CC(CC(F)(F)F)(C3)C4)cc12 [Example 570] | 
 |  |  |  | > 15 | 0.001 to 0.5 | 0.001 to 0.5 | 2 to 15 | C[C@@H](Nc1ccccc1C(=O)O)c1cc(F)cc2c(=O)n(C)c(-c3cnc(-c4cnc(C(F)(F)F)nc4)c(F)c3)cc12 [Example 574] | 
 |  |  |  | > 15 | 0.5 to 2 | 2 to 15 | > 15 | C[C@@H](Nc1ccccc1C(=O)O)c1cc(F)cc2c(=O)n(C)c(-c3cnc(-c4ccnc(C(F)(F)F)n4)c(F)c3)cc12 [Example 575] | 
 |  |  |  | > 15 | 0.001 to 0.5 | 0.001 to 0.5 | 2 to 15 | Cc1nc(C(F)(F)F)c(F)cc1-c1ncc(-c2cc3c([C@@H](C)Nc4ccccc4C(=O)O)cc(F)cc3c(=O)n2C)cc1F [Example 576] | 
 |  |  |  | 2 to 15 | 0.001 to 0.5 | 0.001 to 0.5 | 2 to 15 | C[C@@H](Nc1ccccc1C(=O)O)c1cc(F)cc2c(=O)n(C)c(C34CC(c5ccc(F)cc5F)(C3)C4)cc12 [Example 578] | 
 |  |  |  | > 15 | 0.001 to 0.5 | 0.001 to 0.5 | > 15 | COc1ncc(-c2c(F)c3c([C@@H](C)Nc4ccccc4C(=O)O)cc(F)cc3c(=O)n2C)s1 [Example 581] | 
